The values below come from patent US12441718B2, “Selective angiotensin II compounds” (VICORE PHARMA AB, priority 2021, dated 2025).

Data set [1] in a line: Metabolic stability in pooled human liver microsomes. Type of data set: in vitro ADME. The following applies: human, pooled human liver microsomes, pooled human liver microsomes 0.5 mg/mL, 1 μM test compound, 37° C., * rows = mean of two runs. Summed up: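 Pooled human liver microsomes (0.5 mg/mL in PBS) preincubated ±1 mM NADPH at 37° C; test compound added at 10 min to 1 μM final. Samples at 0, 5, 15 and 60 min quenched in acetonitrile, parent quantified by LC-MS/MS against a standard curve (terfenadine internal standard). Initial metabolic rate calculated with and without NADPH.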
Background: Liver microsomes are a subcellular fraction often used to study metabolism.

A further data set has as its target CYP2C9 (Homo sapiens, UniProt P11712). Nature of the data set: CYP inhibition in human liver microsomes (Eurofins ITEMG232). Type of data set: in vitro ADME. Also on record: isoform-specific substrates incubated with human liver microsomes; tissue Eurofins ITEMG232 (protocol number); host or cells: human liver microsomes. Particulars: human, probe diclofenac, substrate diclofenac, read-out: CYP2C9 Inh %.

The next data set deals with CYP3A4&5. Kind of data set: in vitro. The following applies: human, human liver microsomes, probe testosterone.
The target in a further data set is CYP3A4 (Homo sapiens, UniProt P08684). Nature of the data set: CYP inhibition in human liver microsomes (Eurofins ITEMG232), midazolam substrate. Format: in vitro ADME. Also on record: isoform-specific substrates incubated with human liver microsomes; tissue Eurofins ITEMG232 (protocol number); host or cells: human liver microsomes. The following applies: human, probe midazolam, read-out: CYP3A4 midazolam Inh %.
Chain of CYP3A4 (P08684 whole entry, canonical isoform): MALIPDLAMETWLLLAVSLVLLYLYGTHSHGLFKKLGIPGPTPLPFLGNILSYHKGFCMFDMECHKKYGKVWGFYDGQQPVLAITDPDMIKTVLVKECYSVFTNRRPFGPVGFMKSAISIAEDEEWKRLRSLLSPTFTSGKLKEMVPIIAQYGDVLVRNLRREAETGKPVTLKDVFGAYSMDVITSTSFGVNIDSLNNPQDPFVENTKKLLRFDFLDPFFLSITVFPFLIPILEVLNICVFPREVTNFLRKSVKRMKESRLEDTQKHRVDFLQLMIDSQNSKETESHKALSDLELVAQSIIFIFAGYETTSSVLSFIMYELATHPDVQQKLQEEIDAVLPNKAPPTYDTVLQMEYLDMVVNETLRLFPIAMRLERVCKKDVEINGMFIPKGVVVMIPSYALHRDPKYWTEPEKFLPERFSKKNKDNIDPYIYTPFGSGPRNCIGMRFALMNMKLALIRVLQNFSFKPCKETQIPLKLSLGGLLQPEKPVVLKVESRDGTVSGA

A further data set addresses T1, CYP2B6 (Homo sapiens, UniProt P20813).
T1 construct: isoform-specific substrates incubated with human liver microsomes; tissue Eurofins ITEMG232 (protocol number); host or cells: human liver microsomes
T1 sequence (P20813 1-491): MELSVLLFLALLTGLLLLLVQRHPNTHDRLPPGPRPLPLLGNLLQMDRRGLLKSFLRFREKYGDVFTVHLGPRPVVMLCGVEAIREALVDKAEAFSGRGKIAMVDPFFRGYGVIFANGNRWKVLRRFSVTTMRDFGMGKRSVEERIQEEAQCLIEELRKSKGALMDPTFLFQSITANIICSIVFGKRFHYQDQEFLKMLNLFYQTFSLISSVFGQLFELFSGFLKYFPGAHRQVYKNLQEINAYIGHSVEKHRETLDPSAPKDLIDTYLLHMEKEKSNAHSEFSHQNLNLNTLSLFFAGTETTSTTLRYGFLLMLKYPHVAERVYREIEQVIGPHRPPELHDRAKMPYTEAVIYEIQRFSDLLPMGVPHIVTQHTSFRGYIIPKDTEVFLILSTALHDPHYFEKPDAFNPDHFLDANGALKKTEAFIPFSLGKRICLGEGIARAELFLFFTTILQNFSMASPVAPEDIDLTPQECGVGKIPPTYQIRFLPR
Nature of the data set: CYP inhibition in human liver microsomes (Eurofins ITEMG232). Type of data set: in vitro ADME. Particulars: probe bupropion, substrate bupropion, read-out: CYP2B6 Inh %.

For a further data set, the target named is T2, CYP2D6 (Homo sapiens, UniProt P10635).
T2 construct: isoform-specific substrates incubated with human liver microsomes; tissue Eurofins ITEMG232 (protocol number); host or cells: human liver microsomes
T2 sequence (P10635 whole entry, canonical isoform): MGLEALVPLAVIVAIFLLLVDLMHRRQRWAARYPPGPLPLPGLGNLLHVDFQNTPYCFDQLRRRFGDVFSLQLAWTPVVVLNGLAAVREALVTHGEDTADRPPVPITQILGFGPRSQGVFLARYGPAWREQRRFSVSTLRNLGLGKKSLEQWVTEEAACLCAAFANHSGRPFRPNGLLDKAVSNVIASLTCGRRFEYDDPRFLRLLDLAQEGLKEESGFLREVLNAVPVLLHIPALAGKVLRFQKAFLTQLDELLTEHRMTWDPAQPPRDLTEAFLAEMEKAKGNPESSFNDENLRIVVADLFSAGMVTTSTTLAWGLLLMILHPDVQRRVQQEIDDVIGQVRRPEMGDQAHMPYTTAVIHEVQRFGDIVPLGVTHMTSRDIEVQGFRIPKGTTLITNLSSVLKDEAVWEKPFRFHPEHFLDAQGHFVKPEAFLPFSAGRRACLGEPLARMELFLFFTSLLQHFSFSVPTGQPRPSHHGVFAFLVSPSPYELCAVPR
The data set is described as above. Particulars: probe dextromethorphan, substrate dextromethorphan, read-out: CYP2D6 Inh %. Format: in vitro ADME.

The target in the next data set is T3, CYP1A2 (Homo sapiens, UniProt P05177).
T3 construct: isoform-specific substrates incubated with human liver microsomes; tissue Eurofins ITEMG232 (protocol number); host or cells: human liver microsomes
T3 sequence (P05177 whole entry, canonical isoform): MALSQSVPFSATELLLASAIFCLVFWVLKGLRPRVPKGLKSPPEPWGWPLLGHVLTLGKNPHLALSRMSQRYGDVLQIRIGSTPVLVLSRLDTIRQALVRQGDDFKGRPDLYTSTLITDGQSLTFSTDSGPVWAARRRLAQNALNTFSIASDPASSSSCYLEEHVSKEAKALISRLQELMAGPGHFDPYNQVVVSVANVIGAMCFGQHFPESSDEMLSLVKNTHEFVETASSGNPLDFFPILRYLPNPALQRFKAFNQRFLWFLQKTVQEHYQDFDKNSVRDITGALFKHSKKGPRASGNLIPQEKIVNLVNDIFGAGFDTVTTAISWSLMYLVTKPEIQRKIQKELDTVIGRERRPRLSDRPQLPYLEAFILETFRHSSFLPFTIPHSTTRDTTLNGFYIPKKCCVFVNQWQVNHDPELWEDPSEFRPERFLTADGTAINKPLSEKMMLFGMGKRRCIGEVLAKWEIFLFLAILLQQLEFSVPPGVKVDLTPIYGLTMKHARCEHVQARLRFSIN
Nature of the data set: in vitro. Particulars: human, microsomes, human liver microsomes, substrate phenacetin, read-out: CYP1A2 Inh %. Type of data set: in vitro ADME.

The target in data set [2] is T4, human recombinant AT2 receptor (Homo sapiens, UniProt P50052).
T4 construct: purchased Eurofins ITEM26 (protocol number)
T4 sequence (P50052 1-363): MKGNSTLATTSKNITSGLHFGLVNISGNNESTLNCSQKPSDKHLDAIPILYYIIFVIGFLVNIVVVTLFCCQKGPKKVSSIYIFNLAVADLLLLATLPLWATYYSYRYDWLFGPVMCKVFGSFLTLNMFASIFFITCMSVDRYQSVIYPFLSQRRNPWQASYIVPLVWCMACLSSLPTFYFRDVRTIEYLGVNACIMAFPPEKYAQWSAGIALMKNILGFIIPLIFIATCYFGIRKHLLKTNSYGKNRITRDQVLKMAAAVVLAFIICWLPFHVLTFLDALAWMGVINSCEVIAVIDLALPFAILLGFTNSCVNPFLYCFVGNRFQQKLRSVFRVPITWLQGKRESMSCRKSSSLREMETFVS
Nature of the data set: Binding to AT2 receptor, radiometric scintillation assay (Eurofins ITEM26). Particulars: ligand 125I CGP 42112A, * rows = mean of runs; for Ki: seven-point dose-response curve; for IC50: test compounds at 1, 10, 100 and 1000 nM, read-out: AT2 GraFit IC50.

For another data set, the target named is T5, CYP2C19 (Homo sapiens, UniProt P33261).
T5 construct: isoform-specific substrates incubated with human liver microsomes; tissue Eurofins ITEMG232 (protocol number); host or cells: human liver microsomes
T5 sequence (P33261 whole entry, canonical isoform): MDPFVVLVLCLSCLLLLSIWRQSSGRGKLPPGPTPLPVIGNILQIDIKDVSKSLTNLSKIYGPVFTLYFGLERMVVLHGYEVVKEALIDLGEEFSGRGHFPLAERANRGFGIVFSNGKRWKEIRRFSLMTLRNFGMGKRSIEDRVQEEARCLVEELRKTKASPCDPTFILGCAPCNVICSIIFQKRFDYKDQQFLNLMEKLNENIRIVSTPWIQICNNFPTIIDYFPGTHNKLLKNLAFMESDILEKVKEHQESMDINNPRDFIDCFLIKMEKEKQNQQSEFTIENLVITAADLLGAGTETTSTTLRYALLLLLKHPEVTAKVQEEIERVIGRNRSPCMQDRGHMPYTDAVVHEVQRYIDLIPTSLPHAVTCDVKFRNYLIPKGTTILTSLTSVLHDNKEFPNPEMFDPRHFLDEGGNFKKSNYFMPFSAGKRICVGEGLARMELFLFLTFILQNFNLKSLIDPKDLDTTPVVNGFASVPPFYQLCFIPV
Nature of the data set: CYP inhibition in human liver microsomes (Eurofins ITEMG232). The following applies: human, probe omeprazole, substrate omeprazole, read-out: CYP2C19 Inh %. Type of data set: in vitro ADME.

The target of a further data set is T6, CYP2C8 (Homo sapiens, UniProt P10632).
T6 construct: isoform-specific substrates incubated with human liver microsomes; tissue Eurofins ITEMG232 (protocol number); host or cells: human liver microsomes
T6 sequence (P10632 1-490): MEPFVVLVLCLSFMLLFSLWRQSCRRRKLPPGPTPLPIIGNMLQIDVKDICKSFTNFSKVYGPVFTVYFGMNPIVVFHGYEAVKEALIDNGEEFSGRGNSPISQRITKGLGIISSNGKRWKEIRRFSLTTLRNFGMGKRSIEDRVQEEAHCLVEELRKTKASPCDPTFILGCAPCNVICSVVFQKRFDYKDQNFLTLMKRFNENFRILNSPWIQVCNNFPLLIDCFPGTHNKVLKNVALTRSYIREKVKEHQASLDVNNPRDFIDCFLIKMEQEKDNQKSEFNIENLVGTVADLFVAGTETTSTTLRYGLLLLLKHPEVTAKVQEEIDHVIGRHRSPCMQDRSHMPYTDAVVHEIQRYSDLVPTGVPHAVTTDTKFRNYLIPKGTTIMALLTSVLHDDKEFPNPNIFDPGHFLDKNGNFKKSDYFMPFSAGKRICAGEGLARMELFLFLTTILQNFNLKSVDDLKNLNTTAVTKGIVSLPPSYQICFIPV
The data set is described as above. Type of data set: in vitro ADME. Particulars: human, probe paclitaxel and amodiaquine, substrate paclitaxel and amodiaquine, read-out: CYP2C8 Inh %.

[3] abbreviates: with 1 mM NADPH, read-out: T1/2, + NaDPH.
The mark [4] stands for this setting: without NADPH, read-out: T1/2, no NaDPH.

By Ki is commonly meant a dissociation constant, usually derived from enzyme kinetics or from competition with a known ligand. By IC50 is commonly meant the concentration that gives 50% inhibition.

Like-named read-outs stand apart in the source and are kept apart here.

Chain of CYP2C9 (P11712 whole entry, canonical isoform): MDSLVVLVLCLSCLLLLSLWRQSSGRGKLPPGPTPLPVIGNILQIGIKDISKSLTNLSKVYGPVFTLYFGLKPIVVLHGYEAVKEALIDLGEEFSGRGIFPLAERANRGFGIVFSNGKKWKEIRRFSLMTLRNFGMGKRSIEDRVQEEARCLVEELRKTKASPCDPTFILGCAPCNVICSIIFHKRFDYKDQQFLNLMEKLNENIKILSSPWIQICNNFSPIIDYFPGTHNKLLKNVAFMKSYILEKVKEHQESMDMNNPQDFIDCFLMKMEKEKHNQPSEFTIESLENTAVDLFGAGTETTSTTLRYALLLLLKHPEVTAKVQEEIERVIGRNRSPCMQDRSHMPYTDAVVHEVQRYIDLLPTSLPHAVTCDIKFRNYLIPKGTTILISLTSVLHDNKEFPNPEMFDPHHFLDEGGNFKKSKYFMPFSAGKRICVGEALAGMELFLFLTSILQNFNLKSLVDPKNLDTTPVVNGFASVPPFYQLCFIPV
Description for CYP1A2: The following substrates were used; CYP1A phenacetin, CYP2B36 bupropion, CYP2C8 paclitaxel and amodiaquine, CYP2C9 diclofenac, CYP2C19 omeprazole, CYP2D6 dextromethorphan, CYP3A midazolam and testosterone.
At the end of the incubation, the formation of metabolite was monitored by HPLC-MS/MS as the peak area response.

As for `CC(C)Cc1ccc(S(=O)(=O)Nc2ncc(C(F)(F)F)cn2)c(-c2ccc(Cn3ccnc3C(C)(C)C)c(F)c2)c1` [Example 21, 4′-((2-(tert-Butyl)-1H-imidazol-1-yl)methyl)-3′-fluoro-5-isobutyl-N-(5-(trifluoromethyl)pyrimidin-2-yl)-[1,1′-biphenyl]-2-sulfonamide], the half-life at 1 μM in data set [1] (setting [3]) and in data set [1] (setting [4]) was more than 1 h each time. The inhibition at 10 µM on CYP2C9 is 76.8%; with CYP3A4&5 it was 26.4%; on CYP3A4, 45.8%; on CYP2B6, 37.9%; at CYP2D6, 6.8%; on CYP1A2, -6.4%. The inhibition at 10 µM at CYP2C19 turned out to be 60.2%; at CYP2C8, 59.1%. Besides, the inhibition constant (Ki) in data set [2] was determined as 1.35 nM. Moreover, the IC50 in data set [2] worked out at 2.7 nM.

Take `CCc1nccn1Cc1ccc(-c2cc(CC(C)C)ccc2S(=O)(=O)Nc2ncccn2)cc1F` [Example 29, 4′-((2-Ethyl-1H-imidazol-1-yl)methyl)-3′-fluoro-5-isobutyl-N-(pyrimidin-2-yl)-[1,1′-biphenyl]-2-sulfonamide]: the half-life at 1 μM in [1] (setting [3]) and in data set [1] (setting [4]) was more than 1 h in each case. For the same compound, the inhibition at 10 µM on CYP2C9 worked out at 43%; in the data set with CYP3A4&5, 21.8%; at CYP3A4 it was 15.4%; at CYP2B6, 25%; on CYP2D6, 7.4%; on CYP1A2 it was 13.6%. The inhibition at 10 µM at CYP2C19 was 43.6%; at CYP2C8, 58.2%. For the same compound, the Ki in data set [2] is 0.45 nM. Also, in [2], the IC50 was 0.9 nM.

As to `CC(C)Cc1ccc(S(=O)(=O)Nc2nccs2)c(-c2ccc(Cn3ccnc3C(C)(C)C)c(F)c2)c1` [Example 8, 4′-((2-(tert-Butyl)-1H-imidazol-1-yl)methyl)-3′-fluoro-5-isobutyl-N-(thiazol-2-yl)-[1,1′-biphenyl]-2-sulfonamide], the half-life at 1 μM in [1] (setting [3]) was 0.567 h; in data set [1] (setting [4]) it was more than 1 h. Moreover, the inhibition at 10 µM turned out to be 86.6% on CYP2C9; 42.6% with CYP3A4&5; 0.4% at CYP3A4; 55% on CYP2B6; 32.6% on CYP2D6; 43% at CYP1A2. For the same compound, the figures for the inhibition at 10 µM at CYP2C19 and on CYP2C8 were 71.2% and 88.3%, respectively. For the same compound, in data set [2], the Ki came out at 2.92 nM. In addition, in [2], the IC50 was found to be 5.85 nM.

As for `CC(C)Cc1ccc(S(=O)(=O)Nc2ncccn2)c(-c2ccc(Cn3ccnc3C(C)C)c(F)c2)c1` [Example 27, 3′-Fluoro-5-isobutyl-4′-((2-isopropyl-1H-imidazol-1-yl)methyl)-N-(pyrimidin-2-yl)-[1,1′-biphenyl]-2-sulfonamide], the half-life at 1 μM in data set [1] (setting [3]) and in [1] (setting [4]) was more than 1 h in each case. The inhibition at 10 µM on CYP2C9 was 31.6%; with CYP3A4&5, 25.9%; on CYP3A4, 28.3%; on CYP2B6 it was 15.7%; on CYP2D6 it was 13.8%; on CYP1A2, 17.4%. Moreover, the inhibition at 10 µM on CYP2C19 was 22.2%; at CYP2C8 it was 21.3%. For the same compound, the inhibition constant Ki in data set [2] came to 0.31 nM. The IC50 in data set [2] was 0.61 nM.

For `Cc1cnc(NS(=O)(=O)c2ccc(CC(C)C)cc2-c2ccc(Cn3ccnc3C(C)(C)C)c(F)c2)nc1` [Example 26, 4′-((2-(tert-Butyl)-1H-imidazol-1-yl)methyl)-3′-fluoro-5-isobutyl-N-(5-methylpyrimidin-2-yl)-[1,1′-biphenyl]-2-sulfonamide], the half-life at 1 μM in data set [1] (setting [3]) was 0.733 h; in data set [1] (setting [4]), more than 1 h. Moreover, the inhibition at 10 µM on CYP2C9 amounted to 66.4%; with CYP3A4&5, 34.9%; on CYP3A4, 48.7%; at CYP2B6 it was 16.9%; at CYP2D6, 44.1%; on CYP1A2 it was 10.3%. The inhibition at 10 µM is 46.5% at CYP2C19 and 9.9% on CYP2C8. Further, the Ki in [2] was determined as 1.68 nM. For the same compound, the half-inhibitory concentration (IC50) in data set [2] is 0.84 nM.

For the compound `COc1ccc(NS(=O)(=O)c2ccc(CC(C)C)cc2-c2ccc(Cn3ccnc3C(C)(C)C)cc2)nn1` [Example 14, 4′-((2-(tert-Butyl)-1H-imidazol-1-yl)methyl)-5-isobutyl-N-(6-methoxypyridazin-3-yl)-[1,1′-biphenyl]-2-sulfonamide], the values for the half-life at 1 μM in [1] (setting [3]) and in data set [1] (setting [4]) were 0.333 h and more than 1 h, respectively. Also, the inhibition at 10 µM on CYP2C9 worked out at 55.5%; in the data set on CYP3A4&5, 24.8%; at CYP3A4, 10.3%; on CYP2B6, 25.9%; at CYP2D6, 24.6%; on CYP1A2, 30%. Besides, the inhibition at 10 µM was found to be 58.4% at CYP2C19 and 74.3% on CYP2C8. The Ki in data set [2] amounted to 2.6 nM. Besides, the half-inhibitory concentration (IC50) in [2] turned out to be 5.2 nM.

As to `CC(C)Cc1ccc(S(=O)(=O)Nc2ncc(Br)cn2)c(-c2ccc(Cn3ccnc3C(C)(C)C)c(F)c2)c1` [Example 11, N-(5-Bromopyrimidin-2-yl)-4′-((2-(tert-butyl)-1H-imidazol-1-yl)methyl)-3′-fluoro-5-isobutyl-[1,1′-biphenyl]-2-sulfonamide], the half-life at 1 μM in data set [1] (setting [3]) and in [1] (setting [4]) was more than 1 h in each case. Further, the inhibition at 10 µM at CYP2C9 was 82%; with CYP3A4&5 it was -19.3%; at CYP3A4, 16.1%; on CYP2B6, 48%; on CYP2D6 it was 20%; at CYP1A2, 14.3%. Also, the figures for the inhibition at 10 µM at CYP2C19 and on CYP2C8 were 47.5% and 89.6%, respectively. Moreover, the inhibition constant Ki in data set [2] was 1.54 nM. Further, the IC50 in [2] is 3.07 nM.
